Reference: ChEMBL document CHEMBL1201862, “PubChem BioAssay data set” (2004)
Calls of active or inactive are those of the source.

Tests used:
[1] = target: Alkaline phosphatase, placental type (Homo sapiens, UniProt P05187); test: human placental alkaline phosphatase inhibition – biochemical, luminescence, confirmation (AID 1512); assay type: functional
[2] = target: T1, Alkaline phosphatase, tissue-nonspecific isozyme (Homo sapiens, UniProt P05186); test: potency against alkaline phosphatase TNAP – biochemical, luminescent, dose response, SAR follow-up (AID 1056)
T1 sequence (P05186 whole entry): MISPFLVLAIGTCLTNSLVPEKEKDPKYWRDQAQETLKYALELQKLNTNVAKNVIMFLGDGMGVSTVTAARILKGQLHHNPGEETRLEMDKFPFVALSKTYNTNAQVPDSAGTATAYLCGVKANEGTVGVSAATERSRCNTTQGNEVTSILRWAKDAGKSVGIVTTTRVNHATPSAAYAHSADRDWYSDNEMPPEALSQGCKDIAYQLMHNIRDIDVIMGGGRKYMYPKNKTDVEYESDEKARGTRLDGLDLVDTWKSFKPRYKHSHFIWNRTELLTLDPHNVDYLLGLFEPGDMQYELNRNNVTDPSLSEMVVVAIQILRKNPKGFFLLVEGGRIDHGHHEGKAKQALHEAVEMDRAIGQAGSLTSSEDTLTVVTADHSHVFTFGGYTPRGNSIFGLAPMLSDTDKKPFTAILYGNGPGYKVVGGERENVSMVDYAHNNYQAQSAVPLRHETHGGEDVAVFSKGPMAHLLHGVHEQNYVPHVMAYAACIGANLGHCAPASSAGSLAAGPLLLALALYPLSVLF

[3] = target: Glyceraldehyde-3-phosphate dehydrogenase (Homo sapiens, UniProt P04406)
Sequence of Glyceraldehyde-3-phosphate dehydrogenase (P04406 whole entry): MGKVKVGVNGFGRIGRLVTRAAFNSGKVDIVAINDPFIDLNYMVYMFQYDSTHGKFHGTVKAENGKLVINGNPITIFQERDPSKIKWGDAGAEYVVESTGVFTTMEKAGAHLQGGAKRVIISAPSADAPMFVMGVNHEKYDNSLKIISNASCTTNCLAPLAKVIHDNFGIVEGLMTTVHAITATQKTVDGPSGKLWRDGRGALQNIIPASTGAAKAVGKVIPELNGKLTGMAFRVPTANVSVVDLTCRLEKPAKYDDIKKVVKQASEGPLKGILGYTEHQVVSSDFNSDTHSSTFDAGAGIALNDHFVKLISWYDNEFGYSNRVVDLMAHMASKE

[4] = target: T2, Mucolipin-3 (Homo sapiens, UniProt Q8TDD5); test: Fluorescence counterscreen assay for […] agonists: dose response cell-based high-throughput screening assay to identify agonists of the transient receptor potential channel ML3 (TRPML3). [Related pubchem assays: 1424, 1448 ]; assay type: functional
T2 sequence (Q8TDD5 whole entry): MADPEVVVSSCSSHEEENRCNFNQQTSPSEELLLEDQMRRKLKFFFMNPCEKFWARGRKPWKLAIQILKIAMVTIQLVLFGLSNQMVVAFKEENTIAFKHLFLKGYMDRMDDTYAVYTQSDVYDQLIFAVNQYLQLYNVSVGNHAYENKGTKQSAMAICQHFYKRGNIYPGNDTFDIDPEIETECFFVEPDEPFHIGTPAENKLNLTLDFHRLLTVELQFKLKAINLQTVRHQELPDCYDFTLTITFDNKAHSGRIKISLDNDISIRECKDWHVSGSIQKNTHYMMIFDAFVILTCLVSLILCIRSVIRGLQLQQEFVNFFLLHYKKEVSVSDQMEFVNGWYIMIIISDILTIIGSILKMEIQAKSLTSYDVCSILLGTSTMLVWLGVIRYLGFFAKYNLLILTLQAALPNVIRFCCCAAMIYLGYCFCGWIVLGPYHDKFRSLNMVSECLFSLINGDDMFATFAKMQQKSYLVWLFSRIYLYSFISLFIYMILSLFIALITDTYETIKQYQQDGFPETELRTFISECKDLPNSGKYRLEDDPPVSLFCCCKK

[5] = target: Ion channel NompC (Danio rerio, UniProt Q7T1G6); test: Dose response cell-based high-throughput screening assay for agonists of the transient receptor potential channel N1 (TRPN1). [Related pubchem assays (depositor defined):AID1424, AID1448]; assay type: functional
[6] = target: Peroxisome proliferator-activated receptor gamma/Nuclear receptor coactivator 1 (Homo sapiens, UniProt P37231); test: TR-FRET dose response biochemical High Throughput Screening assay for agonists of the steroid receptor coactivator 1 (SRC-1) recruitment by the peroxisome proliferator-activated receptor gamma (PPAR gamma): non-selective agonists. [Related pubchem assays (depositor defined):AID1300, AID1808, AID504735, AID631]; assay type: protein assay
[7] = target: Peroxisome proliferator-activated receptor gamma/Nuclear receptor coactivator 2 (Homo sapiens, UniProt P37231); test: (§1) TR-FRET dose response biochemical High Throughput Screening assay for agonists of the steroid receptor coactivator 2 (SRC-2) recruitment by the peroxisome proliferator-activated receptor gamma (PPAR gamma): non-selective agonists. [Related pubchem assays: 1297, 1032 ]; assay type: functional
Sequence of Peroxisome proliferator-activated receptor gamma/Nuclear receptor coactivator 2 (P37231 whole entry): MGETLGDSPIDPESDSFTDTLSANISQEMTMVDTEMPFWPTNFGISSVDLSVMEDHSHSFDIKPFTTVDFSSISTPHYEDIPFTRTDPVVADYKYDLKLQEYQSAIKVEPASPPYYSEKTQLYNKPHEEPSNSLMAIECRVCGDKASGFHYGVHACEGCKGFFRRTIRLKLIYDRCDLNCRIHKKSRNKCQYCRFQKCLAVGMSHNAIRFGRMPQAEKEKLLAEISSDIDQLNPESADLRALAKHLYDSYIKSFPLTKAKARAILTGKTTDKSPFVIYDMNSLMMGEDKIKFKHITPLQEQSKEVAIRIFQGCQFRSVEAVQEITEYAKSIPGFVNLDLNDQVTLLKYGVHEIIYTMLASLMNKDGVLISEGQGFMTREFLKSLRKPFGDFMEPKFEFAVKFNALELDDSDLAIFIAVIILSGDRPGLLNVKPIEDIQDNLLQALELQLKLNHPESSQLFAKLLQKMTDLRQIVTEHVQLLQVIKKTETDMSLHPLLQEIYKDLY
Sequence of Peroxisome proliferator-activated receptor gamma/Nuclear receptor coactivator 2 (Q15596 whole entry, further chain): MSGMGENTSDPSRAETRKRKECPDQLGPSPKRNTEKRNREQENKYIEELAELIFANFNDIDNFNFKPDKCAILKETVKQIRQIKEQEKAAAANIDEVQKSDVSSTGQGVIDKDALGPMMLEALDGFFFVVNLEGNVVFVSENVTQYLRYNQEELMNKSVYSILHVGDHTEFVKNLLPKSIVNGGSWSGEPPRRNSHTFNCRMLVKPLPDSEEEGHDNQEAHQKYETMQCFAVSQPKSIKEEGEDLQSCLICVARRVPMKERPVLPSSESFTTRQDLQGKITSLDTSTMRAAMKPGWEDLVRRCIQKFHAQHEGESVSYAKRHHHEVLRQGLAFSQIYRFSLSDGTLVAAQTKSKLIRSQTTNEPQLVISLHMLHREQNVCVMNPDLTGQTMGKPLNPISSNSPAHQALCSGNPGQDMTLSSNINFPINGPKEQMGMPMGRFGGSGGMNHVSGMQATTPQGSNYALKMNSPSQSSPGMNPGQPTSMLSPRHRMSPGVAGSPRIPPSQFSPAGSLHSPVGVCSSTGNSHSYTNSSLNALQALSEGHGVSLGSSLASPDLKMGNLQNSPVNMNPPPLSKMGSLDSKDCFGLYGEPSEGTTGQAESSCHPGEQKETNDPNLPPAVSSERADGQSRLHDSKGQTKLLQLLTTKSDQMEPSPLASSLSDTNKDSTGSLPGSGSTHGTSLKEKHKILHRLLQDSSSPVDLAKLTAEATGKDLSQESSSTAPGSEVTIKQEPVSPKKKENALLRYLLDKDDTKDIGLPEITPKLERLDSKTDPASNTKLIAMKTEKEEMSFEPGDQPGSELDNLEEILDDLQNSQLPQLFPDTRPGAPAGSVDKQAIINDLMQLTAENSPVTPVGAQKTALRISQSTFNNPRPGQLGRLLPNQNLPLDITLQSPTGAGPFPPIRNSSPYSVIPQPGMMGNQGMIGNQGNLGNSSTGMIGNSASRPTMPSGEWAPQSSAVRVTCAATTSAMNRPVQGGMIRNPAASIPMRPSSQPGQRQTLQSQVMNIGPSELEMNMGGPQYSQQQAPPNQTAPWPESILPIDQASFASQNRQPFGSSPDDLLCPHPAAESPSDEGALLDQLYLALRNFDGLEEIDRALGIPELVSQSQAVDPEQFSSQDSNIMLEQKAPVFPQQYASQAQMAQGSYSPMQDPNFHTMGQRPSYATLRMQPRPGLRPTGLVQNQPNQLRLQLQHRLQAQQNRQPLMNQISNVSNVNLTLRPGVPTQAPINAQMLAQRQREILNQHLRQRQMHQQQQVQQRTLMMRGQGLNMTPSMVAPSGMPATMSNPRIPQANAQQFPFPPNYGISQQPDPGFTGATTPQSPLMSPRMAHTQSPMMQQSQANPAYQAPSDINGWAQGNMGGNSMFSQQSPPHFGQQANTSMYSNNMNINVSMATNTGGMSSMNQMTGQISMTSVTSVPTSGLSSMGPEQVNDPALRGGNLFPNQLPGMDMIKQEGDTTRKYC

[8] = target: Peroxisome proliferator-activated receptor gamma/Nuclear receptor coactivator 3 (Homo sapiens, UniProt P37231); test: as §1, with “3 (SRC-3)” for “2 (SRC-2)”, “1301 (Confirmation screen.), 1048 (Primary screen.)]” for “1297, 1032 ]”; assay type: functional
[9] = target: Heat shock protein HSP 90-alpha (Homo sapiens, UniProt P07900); assay type: functional, organism-based
[10] = target: T3, Heat shock factor protein 1 (Mus musculus, UniProt P38532); test: enhancement of HSF1-driven luciferase signal – cell-based, NIH3T3, luminescence, dose retest, confirmation (AID 435004); assay type: functional;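 further: stress induced by proteasome inhibitor MG132 added 30 min after compound; luciferase reporter driven by HSF1 response element in NIH3T3 cells; actives raise luminescence as potentiators of the MG132 stress response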
T3 sequence (P38532 whole entry): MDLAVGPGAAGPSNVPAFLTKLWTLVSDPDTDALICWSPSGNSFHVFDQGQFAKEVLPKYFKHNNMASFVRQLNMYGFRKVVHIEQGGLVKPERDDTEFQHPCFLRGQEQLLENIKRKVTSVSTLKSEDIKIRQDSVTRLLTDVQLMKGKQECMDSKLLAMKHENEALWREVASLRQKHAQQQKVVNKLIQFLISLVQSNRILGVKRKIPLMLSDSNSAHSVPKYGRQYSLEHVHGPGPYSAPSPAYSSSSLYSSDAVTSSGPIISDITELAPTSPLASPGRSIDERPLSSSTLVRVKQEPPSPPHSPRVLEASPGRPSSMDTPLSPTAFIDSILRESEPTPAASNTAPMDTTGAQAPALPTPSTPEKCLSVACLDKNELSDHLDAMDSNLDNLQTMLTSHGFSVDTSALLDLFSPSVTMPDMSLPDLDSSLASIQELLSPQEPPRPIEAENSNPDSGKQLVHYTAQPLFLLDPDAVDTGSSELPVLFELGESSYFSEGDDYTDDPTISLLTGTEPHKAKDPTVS

[11] = target: G-protein coupled receptor 55 (Homo sapiens, UniProt Q9Y2T6); test: inhibition of LPI-stimulated GPR55 beta-arrestin translocation – imaging, U2OS, beta-arrestin-GFP, LPI agonist, primary screen (AID 2013); assay type: functional;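 further: antagonist potency measured as reduced agonist-driven arrestin aggregation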
Sequence of G-protein coupled receptor 55 (Q9Y2T6 whole entry): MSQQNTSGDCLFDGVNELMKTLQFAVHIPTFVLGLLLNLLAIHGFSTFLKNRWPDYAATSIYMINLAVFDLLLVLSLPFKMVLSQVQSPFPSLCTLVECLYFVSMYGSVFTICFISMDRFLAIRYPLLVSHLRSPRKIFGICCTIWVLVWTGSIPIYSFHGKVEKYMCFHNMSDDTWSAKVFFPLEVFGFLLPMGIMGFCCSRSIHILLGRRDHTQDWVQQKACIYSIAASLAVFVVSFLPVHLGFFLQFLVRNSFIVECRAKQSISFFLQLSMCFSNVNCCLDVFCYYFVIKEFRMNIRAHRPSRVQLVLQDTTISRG

[12] = NIH3T3 cell viability loss – ATP luminescence, mouse fibroblasts, counter-screen, dose response (AID 2010); assay type: functional, cell-based;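 further: cells exposed to compound for about 90 hours before reading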
[13] = target: T4, High affinity choline transporter 1 (Homo sapiens, UniProt Q9GZV3); test: human choline transporter blockers, potency – cell-based, 5-point CRC, membrane potential dye, dose response (AID 504840); assay type: functional
T4 sequence (Q9GZV3 whole entry): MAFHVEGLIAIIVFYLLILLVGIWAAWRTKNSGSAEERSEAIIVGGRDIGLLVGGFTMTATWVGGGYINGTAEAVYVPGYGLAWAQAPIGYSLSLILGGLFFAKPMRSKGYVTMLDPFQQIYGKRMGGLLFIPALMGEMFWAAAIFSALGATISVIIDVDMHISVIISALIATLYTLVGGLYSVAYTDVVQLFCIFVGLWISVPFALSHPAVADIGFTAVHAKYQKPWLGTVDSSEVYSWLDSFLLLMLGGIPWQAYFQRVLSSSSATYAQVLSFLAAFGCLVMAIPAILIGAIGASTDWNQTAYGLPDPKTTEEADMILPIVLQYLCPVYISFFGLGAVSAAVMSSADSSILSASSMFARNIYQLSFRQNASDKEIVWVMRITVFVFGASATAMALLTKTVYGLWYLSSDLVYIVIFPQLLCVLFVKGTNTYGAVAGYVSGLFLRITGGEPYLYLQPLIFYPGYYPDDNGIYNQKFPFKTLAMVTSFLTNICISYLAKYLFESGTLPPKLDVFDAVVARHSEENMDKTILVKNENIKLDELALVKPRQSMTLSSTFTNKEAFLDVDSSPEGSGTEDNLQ

[14] = Vero E6 cell cytotoxicity, dose response, cytotoxicity control for non-replicating M. tuberculosis project, secondary assay (AID 492998); assay type: functional, VeroE6; conditions: Vero C1008
[15] = THP-1 cell cytotoxicity, dose response, cytotoxicity control for non-replicating M. tuberculosis project (AID 489025); assay type: functional
[16] = HepG2 cell cytotoxicity, dose response, cytotoxicity control for non-replicating M. tuberculosis project (AID 489018); assay type: functional; conditions: Mycobacterium tuberculosis
[17] = cells; assay type: functional
[18] = Trypanosoma cruzi growth suppression in host cells – NIH3T3 host cells, beta-gal luminescence, confirmation (AID 2044); assay type: functional, cell-based;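 further: intracellular parasites grown in NIH/3T3 mouse fibroblasts as host cells; luminescent beta-galactosidase reporter signal from transgenic T. cruzi replicating inside host cells; inhibitors lower the luminescence signal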
[19] = system: HEK293; test: SAR analysis of compounds that are cytotoxic to HEK293 - Set 3. [Related pubchem assays (depositor defined):AID1575, AID1578, AID1848, AID1849, AID2001, AID2333, AID2334, AID2335, AID2337, AID2469]; assay type: functional, cell-based; conditions: Homo sapiens
[20] = target: T5, Nucleotide-binding oligomerization domain-containing protein 1 (Homo sapiens, UniProt Q9Y239); test: SAR analysis of compounds that inhibit NOD1 - Set 3. [Related pubchem assays (depositor defined):AID1566, AID1575, AID1578, AID1849, AID1852, AID2333, AID2335, AID2466]; assay type: functional
T5 sequence (Q9Y239 whole entry): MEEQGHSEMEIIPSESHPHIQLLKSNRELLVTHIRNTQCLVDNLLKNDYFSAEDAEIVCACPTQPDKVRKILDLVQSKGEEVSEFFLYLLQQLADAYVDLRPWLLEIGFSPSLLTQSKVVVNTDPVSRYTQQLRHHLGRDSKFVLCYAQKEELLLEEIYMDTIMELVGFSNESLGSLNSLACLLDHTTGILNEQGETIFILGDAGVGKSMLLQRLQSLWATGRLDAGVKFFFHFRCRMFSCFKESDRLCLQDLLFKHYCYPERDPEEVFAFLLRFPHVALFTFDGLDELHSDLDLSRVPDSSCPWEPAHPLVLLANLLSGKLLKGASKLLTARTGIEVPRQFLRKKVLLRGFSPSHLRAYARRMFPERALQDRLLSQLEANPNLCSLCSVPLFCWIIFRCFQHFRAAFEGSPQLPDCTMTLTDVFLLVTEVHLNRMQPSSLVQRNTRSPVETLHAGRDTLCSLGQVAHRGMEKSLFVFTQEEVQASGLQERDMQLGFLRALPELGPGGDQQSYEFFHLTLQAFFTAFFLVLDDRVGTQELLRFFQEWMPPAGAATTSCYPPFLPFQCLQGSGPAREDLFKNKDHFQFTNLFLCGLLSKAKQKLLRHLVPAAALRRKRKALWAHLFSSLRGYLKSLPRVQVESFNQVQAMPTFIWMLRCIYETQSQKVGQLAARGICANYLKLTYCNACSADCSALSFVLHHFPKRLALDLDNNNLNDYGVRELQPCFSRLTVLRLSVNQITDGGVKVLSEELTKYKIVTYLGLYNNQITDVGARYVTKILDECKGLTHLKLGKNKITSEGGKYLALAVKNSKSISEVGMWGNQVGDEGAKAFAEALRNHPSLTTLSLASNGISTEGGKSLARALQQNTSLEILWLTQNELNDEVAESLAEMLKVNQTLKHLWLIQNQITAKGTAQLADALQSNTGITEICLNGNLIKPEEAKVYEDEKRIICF

[21] = target: Tumor necrosis factor (Homo sapiens, UniProt P01375); test: analog potency on TNFa NF-kB signaling – cell-based, set 3, SAR follow-up (AID 2801); assay type: functional
Sequence of Tumor necrosis factor (P01375 whole entry, the tested form may be a part): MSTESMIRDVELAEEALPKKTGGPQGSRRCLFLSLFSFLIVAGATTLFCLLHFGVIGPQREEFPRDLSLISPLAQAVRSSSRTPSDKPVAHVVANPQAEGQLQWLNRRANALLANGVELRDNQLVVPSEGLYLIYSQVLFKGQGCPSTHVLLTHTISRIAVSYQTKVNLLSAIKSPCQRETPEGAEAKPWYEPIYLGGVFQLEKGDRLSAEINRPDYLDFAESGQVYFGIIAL

[22] = target: Nucleotide-binding oligomerization domain-containing protein 2 (Homo sapiens, UniProt Q9HC29); test: inhibition of MDP-driven NOD2 NF-kB reporter – cell-based, set 3, SAR follow-up (AID 2799); assay type: functional
Sequence of Nucleotide-binding oligomerization domain-containing protein 2 (Q9HC29 whole entry, the tested form may be a part): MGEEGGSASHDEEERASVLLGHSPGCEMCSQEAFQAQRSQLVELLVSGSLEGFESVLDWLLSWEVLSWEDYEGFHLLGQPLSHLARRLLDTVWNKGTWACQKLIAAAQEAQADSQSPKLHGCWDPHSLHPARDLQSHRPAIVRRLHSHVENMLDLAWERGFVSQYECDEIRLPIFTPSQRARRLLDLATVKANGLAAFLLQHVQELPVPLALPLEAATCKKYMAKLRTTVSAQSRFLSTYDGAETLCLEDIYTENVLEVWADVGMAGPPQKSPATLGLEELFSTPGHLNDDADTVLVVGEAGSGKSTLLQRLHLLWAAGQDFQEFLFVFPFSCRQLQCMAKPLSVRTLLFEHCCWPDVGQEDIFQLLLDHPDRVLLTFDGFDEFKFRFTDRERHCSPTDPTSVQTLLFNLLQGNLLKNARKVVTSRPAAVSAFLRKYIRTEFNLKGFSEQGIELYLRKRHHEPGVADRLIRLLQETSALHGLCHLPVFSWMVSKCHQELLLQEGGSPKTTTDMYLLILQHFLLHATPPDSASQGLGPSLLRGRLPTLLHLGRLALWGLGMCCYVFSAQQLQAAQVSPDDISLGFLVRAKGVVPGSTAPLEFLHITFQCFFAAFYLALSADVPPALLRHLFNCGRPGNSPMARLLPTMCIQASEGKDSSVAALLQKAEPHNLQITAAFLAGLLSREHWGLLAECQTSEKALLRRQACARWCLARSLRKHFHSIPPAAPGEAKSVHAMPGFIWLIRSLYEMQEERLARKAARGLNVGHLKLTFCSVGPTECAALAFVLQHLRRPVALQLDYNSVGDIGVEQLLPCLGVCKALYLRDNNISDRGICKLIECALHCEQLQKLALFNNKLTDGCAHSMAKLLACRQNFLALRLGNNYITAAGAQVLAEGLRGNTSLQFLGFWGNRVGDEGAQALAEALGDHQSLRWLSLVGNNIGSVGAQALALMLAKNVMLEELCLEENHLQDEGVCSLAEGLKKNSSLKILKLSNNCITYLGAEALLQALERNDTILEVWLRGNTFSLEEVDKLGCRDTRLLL

[23] = target: T6, Coagulation factor XII (Homo sapiens, UniProt P00748); assay type: functional;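 further: activated factor XIIa alpha cleaving a fluorogenic AMC peptide substrate; inhibitor potency from loss of enzyme activity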
T6 sequence (P00748 whole entry): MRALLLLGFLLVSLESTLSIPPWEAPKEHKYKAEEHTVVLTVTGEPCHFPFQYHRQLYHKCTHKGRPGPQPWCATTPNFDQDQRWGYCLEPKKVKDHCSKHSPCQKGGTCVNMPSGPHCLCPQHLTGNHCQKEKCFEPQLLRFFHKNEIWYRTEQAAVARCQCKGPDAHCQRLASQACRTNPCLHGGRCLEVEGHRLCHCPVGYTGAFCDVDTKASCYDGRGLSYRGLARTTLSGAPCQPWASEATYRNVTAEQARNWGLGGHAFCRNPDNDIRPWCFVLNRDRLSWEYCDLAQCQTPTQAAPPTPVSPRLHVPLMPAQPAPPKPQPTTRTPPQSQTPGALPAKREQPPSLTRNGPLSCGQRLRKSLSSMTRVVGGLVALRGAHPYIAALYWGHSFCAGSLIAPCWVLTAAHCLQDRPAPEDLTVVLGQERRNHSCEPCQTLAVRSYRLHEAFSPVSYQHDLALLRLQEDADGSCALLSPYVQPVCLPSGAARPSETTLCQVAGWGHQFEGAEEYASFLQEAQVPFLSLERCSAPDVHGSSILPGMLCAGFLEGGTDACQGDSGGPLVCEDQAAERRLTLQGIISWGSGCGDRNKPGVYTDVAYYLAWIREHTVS

Sequence of Alkaline phosphatase, placental type (P05187 whole entry): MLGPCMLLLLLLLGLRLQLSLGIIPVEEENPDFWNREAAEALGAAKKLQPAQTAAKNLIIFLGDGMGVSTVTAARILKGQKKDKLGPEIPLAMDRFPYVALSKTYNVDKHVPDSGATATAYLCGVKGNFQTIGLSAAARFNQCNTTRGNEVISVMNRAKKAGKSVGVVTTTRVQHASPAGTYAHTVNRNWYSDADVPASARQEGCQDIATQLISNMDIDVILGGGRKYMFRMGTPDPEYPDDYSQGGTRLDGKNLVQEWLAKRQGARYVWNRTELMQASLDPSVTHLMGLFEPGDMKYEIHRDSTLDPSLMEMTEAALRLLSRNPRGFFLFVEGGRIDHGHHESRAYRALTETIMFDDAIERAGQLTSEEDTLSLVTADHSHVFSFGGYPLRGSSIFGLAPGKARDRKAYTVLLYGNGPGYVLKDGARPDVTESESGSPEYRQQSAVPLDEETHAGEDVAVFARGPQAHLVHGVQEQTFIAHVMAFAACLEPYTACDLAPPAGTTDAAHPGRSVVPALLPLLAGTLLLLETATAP

COC(=O)c1cc(-c2cc(F)c(Cl)cc2Cl)n[nH]1
IC50 [1]: > 100 µM (inactive)
IC50 [2]: 0.911 µM (active)
IC50 [3]: > 100 µM (not active)

CCOC(=O)c1ccc(NC(=O)Nc2ccc(F)cc2)cc1
EC50 [4]: > 29.9 µM (not active)
EC50 [5]: > 9.97 µM (inactive)

Cn1c(=O)cc(SCC(=O)N2CCC3(CC2)OCCO3)c2ccccc21
EC50 [6]: > 79.4 µM (inactive)
EC50 [7]: > 79.4 µM (not active)
EC50 [8]: > 79.4 µM (not active)

Brc1ccc(-c2nc3ccccc3s2)s1
EC50 [6]: 3.34 µM (active)
EC50 [7]: 3.18 µM (active)
EC50 [8]: 81.4 µM (not active)

Clc1ccccc1CN(Cc1ccco1)Cc1nnnn1C1CCCC1
AC50 [9]: 5.48 µM (active)
EC50 [10]: > 260 µM (inactive)
IC50 [11]: 4.16 µM (active)

CN(C)CCCn1c(=O)n(CCc2ccccc2)c(=O)c2c3c(sc21)CCCCC3
EC50 [12]: 36.1 µM (active)
IC50 [13]: 12.6 µM (active)
CC50 [14]: 12.5 µM (active)
CC50 [15]: 19.1 µM (active)
CC50 [16]: 14.3 µM (active)
IC50 [17]: 21.2 µM (active)
EC50 [18]: 0.113 µM (active)

COc1ccc(-c2cc(N)n(S(=O)(=O)c3ccc(F)c(C)c3)n2)cc1
IC50 [19]: > 20 µM (inactive)
IC50 [20]: > 20 µM (inactive)
IC50 [21]: 19.9 µM (active)
IC50 [22]: > 20 µM (inactive)

Nc1nc2ccccc2n1S(=O)(=O)c1ccc(F)cc1
IC50 [19]: > 20 µM (inactive)
IC50 [20]: 4.31 µM (active)
IC50 [21]: > 20 µM (inactive)
IC50 [22]: > 20 µM (inactive)

Cn1c(SCC(=O)c2ccccc2)nnc1-c1cccc(N)c1
IC50 [23]: > 50 µM (inactive)
IC50 [1]: > 100 µM (inactive)
IC50 [2]: > 100 µM (inactive)
